Experiments:
[1] = test system: non-template amplification; assay: LAMP assay, suppression of non-template (background) amplification, real-time SYTO-9 fluorescence; format: biochemical; conditions: for Minimum effective concentration of individual additive (Compound B) required for suppression of non-template amplification / Minimum effective concentration of individual additive (Compound A) required for suppression of non-template amplification: single additive, 100% suppression; for effect on non-template amplification: lower temperature
Protocol: (§1) • 0.4-8 ng/μl DNA polymerase (Bst 2.0-Sso7d) in LAMP Buffer [20 mM Tris, 125 mM KCl, 10 mM (NH4)2SO4, 8 mM MgSO4, 1.4 mM dNTPs, 0.1% Tween-20® (Sigma-Aldrich, St. Louis, Mo.), pH 8.8 25° C.] • 1.6 μM Forward internal primer (FIP)/Back internal primer (BIP), 0.2 μM F3/B3, 0.4 μM LoopF/LoopB • 5 ng λ DNA or none (non-template control) per reaction (25 μl)
(§2) The additive solution was added to the amplification mixture to provide a final concentration in the range of 0-40% v/v where the stock solution of additive was solubilized in water. For example, concentrations of isobutyramide in the range of 0.005 M-1.5 M, 0.01 M-1.2 M, or 0.01 M-0.7 M and N-methylformamide in the range of 0.01-2 M, 0.02 M-1.5 M, or 0.02 M-1 M (combined for example, at ratios of 10:1, 8:1, 6:1, 4:1, 2:1, 1.8:1, 1.6:1, 1.4:1, 1.2:1, 1:1 of N-methylformamide:isobutyramide) were tested at various temperatures. Other examples included in the final reaction mixture 0.02 M-1.3 M propionamide, 0.2 M-2 M Urea, 0.1 M-3.8 M formamide, 0.05 M-2 M acetamide, 0.02 M-0.5 M valeramide, 0.01 M-2 M N,N-dimethylformamide, 0.01 M-2 M N,N-diethylformamide, 0.01 M-1.8 M N,N-dimethylbutyramide.
(§3) The extent of amplification of lambda DNA (unless otherwise specified) with a LAMP amplicon size of 100-200 bases was measured by real-time fluorescence using 2 μM SYTO-9® (Life Technologies, Carlsbad, Calif.) double strand DNA intercalating dye (Nagamine, et al., Molecular and Cellular Probes, 16:223-229 (2002)) using the following primers: […]
The reduction in background fluorescence from non-template amplification was quantitatively assessed. The total reaction time for LAMP is 90 minutes. In the absence of additives, a positive signal for an amplification product of a template could be detected at about 3 minutes-15 minutes at temperatures 55° C.-72° C. and for a non-template signal at 8 minutes-30 minutes at temperatures below about 71° C. When a mixture of additives was included in the amplification mixture, a positive signal for template amplification is still seen at 3 minutes-15 minutes but no signal is seen even after 85 minutes for non-template reactions. This is recorded however as the maximum time to illustrate the synergistic effect. […] In all cases, the effect of the ratio of components of the mixture at specific molar concentrations is greater than the effect of each component small molecule individually tested at the same molar concentration and temperature (exemplified by data in Table 2).
The synergistic effect of mixing a carboxamide and N-alkylcarboxamide was examined.

lambda DNA = assay: LAMP assay, target (template) amplification, real-time SYTO-9 fluorescence; format: biochemical, lambda phage
Protocol: as §1, §2, §3
The reduction in background fluorescence from non-template amplification was quantitatively assessed. The total reaction time for LAMP is 90 minutes. In the absence of additives, a positive signal for an amplification product of a template could be detected at about 3 minutes-15 minutes at temperatures 55° C.-72° C. and for a non-template signal at 8 minutes-30 minutes at temperatures below about 71° C. […] This is recorded however as the maximum time to illustrate the synergistic effect. […]

[2] = isobutyramide increased above 0.4 M
[3] = N-methylformamide increased above 1.0 M

CCN(C=O)CC [DEF, N,N-diethylformamide]
Minimum effective concentration of individual additive (Compound B) required for suppression of non-template amplification ([1]; 65 °C): 0.26 M

CCCC(=O)N(C)C [DMB, N,N-dimethylbutyramide]
Minimum effective concentration of individual additive (Compound A) required for suppression of non-template amplification ([1]; 65 °C): 0.24 M

CN(C)C=O [DMF, N,N-dimethylformamide]
Minimum effective concentration of individual additive (Compound B) required for suppression of non-template amplification ([1]; 65 °C): 0.77 M

NC=O [FA, formamide]
Minimum effective concentration of individual additive (Compound A) required for suppression of non-template amplification ([1]; 65 °C): 1.8 M

CC(C)C(N)=O [IBA, isobutyramide]
effect on target amplification (lambda DNA; [2]): further inhibit the target amplification | suppression of non-template amplification ([1]; 0.4 M isobutyramide alone, 60 °C): ~1% | suppression of non-template amplification ([1]; 0.4 M isobutyramide alone, 65 °C): ~10% | effect on non-template amplification [1, 2]: did not affect the non-template amplification at lower temperature | Minimum effective concentration of individual additive (Compound A) required for suppression of non-template amplification ([1]; 65 °C): 0.41 M

CNC=O [NMF, N-methylformamide]
effect on target amplification (lambda DNA; 1.1 M N-methylformamide, single additive, FIG. 2B): inhibited target amplification above 68 °C | effect on target amplification (lambda DNA; [3]): further inhibit the target amplification | suppression of non-template amplification ([1]; 1.1 M N-methylformamide alone, 60 °C): ~1% | suppression of non-template amplification ([1]; 1.1 M N-methylformamide alone, 65 °C): ~10% | effect on non-template amplification [1, 3]: did not affect the non-template amplification at lower temperature | effect of increasing amounts of single additive on non-template amplification (time to threshold) ([1]; increasing amounts of 3.2 M N-methylformamide, FIG. 6A): no beneficial effect observed | Minimum effective concentration of individual additive (Compound B) required for suppression of non-template amplification ([1]; 65 °C): 1.1 M

CCC(N)=O [PIA, propionamide]
effect of increasing amounts of single additive on non-template amplification (time to threshold) ([1]; increasing amounts of 1.7 M propionamide, FIG. 6B): no beneficial effect observed | Minimum effective concentration of individual additive (Compound A) required for suppression of non-template amplification ([1]; 65 °C): 0.80 M

CCCCC(N)=O [VA, valeramide]
Minimum effective concentration of individual additive (Compound A) required for suppression of non-template amplification ([1]; 65 °C): 0.20 M

Source: US9546358B2, “Compositions and methods for reducing background DNA amplification” (New England Biolabs, Inc., priority 2012, dated 2017)
